{"source": "patent US10357577B2", "about": "“Bacterial nitroreductase enzymes and methods relating thereto” (AUCKLAND UNISERVICES LIMITED, priority 2010, dated 2019)", "key": {"[1]": {"test_system": "nitroreductase NfsA-expressing HCT116 'activator' cells", "experiment": "MCL (multicellular layer) bystander experiment, NfsA-dependent activation", "format": "cell-based, human", "protocol": "Displacement of the Target cell survival curve to the left (T to Tc) is indicative of the presence of a cytotoxic metabolite(s) able to diffusible out of the sensitive activator (A) cell population. The prodrug concentrations for 10% survival (C10) of target cells (wild-type cells) grown without activators (T), targets in co-culture (TC) and activators (nfsA-expressing cells) in co-culture (AC) were determined by interpolation. BEE-Bystander effect efficiency calculates the drugs bystander effect: ((Log C10T−Log C10TC)/(Log C10T−Log C10AC)).\nThe prodrug concentrations for 10% survival (C10) of target cells (wild-type cells) grown without activators (T), and targets in co-culture (TC) and activators (NTR-expressing cells) in co-culture (AC) can be determined. The bystander effect of a test prodrug is measured by the bystander effect efficiency which can be calculated using the algorithm ((Log C10T−Log C10TC)/(Log C10T−Log C10AC)).\nMillicell-CM membrane inserts (Millipore) were coated in calf-skin collagen type III (Sigma-Aldrich) to facilitate cell attachment. […] After exposure, inserts were disaggregated (0.07% trypsin, 10 min, 37° C., followed by 100 μg/ml DNAase I (Sigma-Aldrich). Cells were counted, resuspended and plated in P60 dishes to determine clonogenic survival. To discriminate clonogenic activator (NTR+) from target (NTR−) colonies cells were plated in non-selective medium (total cells) and medium containing 1 μM puromycin (activator cells). Colonies were grown in a 37° C. 5% CO2 incubator for 10 days before staining with methylene blue (2 g/liter in 50% v/v aqueous ethanol). Colonies containing >50 cells were counted as clonogenic survivors. Surviving fractions for each population was calculated as the plating efficiency for drug-treated MCLs/untreated controls. The drug concentrations for 10% survival (C10) of target cells grown without activators (T), targets in co-culture (Tc) and activators in co-culture (Ac) was determined by interpolation."}, "[2]": {"conditions": "cited from earlier work"}, "[3]": {"test_system": "HCT-116 cells stably expressing E. coli NfsA", "experiment": "Flow cytometry / fluorescent imaging of EF5 retention in vitro", "format": "cell-based, human", "protocol": "(§1) FIG. 11 illustrates the results of flow cytometry analysis and fluorescent imaging of stably-expressing E. coli NTR cells after in vitro EF5 exposure. 1×10^6 cells were seeded into a 6-well plate and incubated with 20 μM EF5 for 2 hrs at 37° C. Cells were fixed and stained, then analysed by flow cytometry and imaged using a Nikon2000 fluorescent microscope.\n(§2) FIG. 13 illustrates the results of flow cytometry analysis of HCT-116 cells stably expressing E. coli NfsA and NfsB after in vitro dose-response to EF5 exposure. 1×10^6 cells were incubated with varying concentrations of EF5 in oxic conditions. Samples were fixed and stained with EF5 antibody Alexa 488 ELK3.51 at 100 μg/ml. Samples were then analysed on a Becton Dickinson FACscan flow cytometer. Values are mean±SEM of two independent experiments. Representative histograms at multiple EF5 dose levels.\n(§3) In vitro: 1×10^6 cells were drug treated (EF5 or PIMO) for 1-2 hrs, harvested by trypsinisation, fixed with 4% buffered PFA (pH 7.4, 1 hr). In vivo: Tumour xenograft cells were isolated by enzymatic dissociation (2.5 mg/ml pronase, 1 mg/ml collagenase and 0.2 mg/ml DNAse) and immediately fixed with 4% buffered PFA (pH 7.4, 1 hr). and transferred to 70% ethanol (−20° C., overnight). Cells were resuspended in 1% BSA/PBS and permeabilised with 0.2% Triton X-100 (30 min, RT), blocked in 10% BSA/PBS (30 min, RT) and resuspended in primary antibody for 2 hr (37° C.). The primary antibody was either anti-EF5 mouse monoclonal (ELK 3.51) conjugated with CY5 or Alexa-488 diluted to 100 μg/ml in blocking buffer (according to instruction in Koch C., 2008, Rad Res, 169 (6): 677-688) or Hypoxyprobe-1 (Chemicon Int) mouse monoclonal anti-pimonidazole antibody (clone 4.3.11.3) conjugated with FITC and diluted 1:100 in blocking buffer. Cells were washed in blocking buffer and resuspended in blocking buffer containing 100 μg/ml RNAase and analysed using a Becton Dickinson FACscan flow cytometer (MA, USA) with Cell Quest software using forward scatter and side scatter to gate out cell debris and tumour cells. Integrated fluorescence measurements were recorded for 30,000 single non-debris events.\n(§4) In vitro: 3-4 drops of cell suspension prepared for flow cytometry was added to a cytospin chamber containing a poly-I-lysine coated slide and spun for 5 minutes at low acceleration (500 rpm) in a cytospinner. Cells were left to dry and mounted with coverslips using Prolong Gold antifade (Invitrogen) and sealed with nail varnish."}, "[4]": {"test_system": "HCT-116 cells stably expressing E. coli NfsB", "experiment": "Flow cytometry / fluorescent imaging of EF5 retention in vitro", "format": "cell-based, human", "protocol": "as §1, §2, §3, §4"}, "[5]": {"test_system": "nfsA-expressing cells in mixed HCT116 xenografts", "experiment": "Immunohistochemical detection of EF5 binding in tumour xenograft sections", "format": "in vivo, mice", "conditions": "constant exposure time 0.5 s", "protocol": "FIG. 16 (A) illustrates immunohistochemical detection of EF5 binding in human tumour xenografts harbouring 0%, 3%, 12% or 20% HCT-116^nfsA expressing cells. FIG. 16 (A) further illustrates Fluorescent microscope pictures of tumour sections, and FIG. 16 (B) illustrates flow cytometry histograms of EF5/CY5 fluorescence to confirm % NfsA expressing cells of individual tumour.\nIn vivo: mice were treated with 60 mg/kg EF5 (ip) and left for 24 hrs. Tumour tissue was excised, fixed in 10% formalin dissolved in PBS (48 h), transferred to 70% ethanol and embedded in paraffin. Sections (5 μm) were cut, mounted onto poly-L-lysine coated glass slides and heat fixed for 1 h at 60° C. Sections were dewaxed, rehydrated, washed in Milli-Q water and then rinsed in 0.01 M Tris buffered saline (TBS, pH 7.4). Antigen retrieval was achieved by boiling samples in 10 mM sodium citrate buffer pH 6 for 25 min. Sections were washed with TBS containing 0.1% Tween-20 (TBS-T) and blocked with 1% mouse serum in TBS. After rinsing, the samples were incubated for 2 hr at room temperature with 100 μg/ml anti-EF5 (Alexa-488) primary antibody diluted in PBS containing 0.2% Tween-20. After rinsing in with TBS-T the coverslips were mounted with Prolong Gold antifade (Invitrogen) and sealed with nail varnish. […] Images were analysed and overlaid using Adobe Photoshop software (Adobe Photoshop 4.0)."}, "[6]": {"conditions": "increasing EF5 concentrations, oxic, monolayer"}}}
{"smiles": "O=C(Cn1ccnc1[N+](=O)[O-])NCC(F)(F)C(F)(F)F", "note": "[EF5, 2-(2-nitro-1H-imidazol-1-yl)-N-(2,2,3,3,3-pentafluoropropyl)acetamide]", "values": [{"measurement": "bystander property (in words)", "setting": "[1]; MCL of NTR-expressing and parental HCT116 cells", "result": "zero bystander property"}, {"measurement": "concentration-time giving 90% loss of viability for nfsA expressing HCT116 cells", "setting": "[1]; cold (radiolabel-free) EF5", "result": 0.7, "unit": "mM-hr"}, {"measurement": "estimated bystander effect efficiency (BEE)", "setting": "[1]; hyperoxic (95% O2) MCLs, at concentrations achievable in α-MEM+10% FBS, activator fraction differs per experiment", "result": 0, "unit": "%"}, {"measurement": "tolerability (in words)", "setting": "[2]; EF5 21 mg/kg, injected", "result": "without any toxicities"}, {"measurement": "concentration-time achieved in human plasma", "setting": "[2]; cold EF5 9 mg/kg", "result": 0.89, "unit": "mM-hr"}, {"measurement": "cellular retention of EF5 (in words)", "setting": "[3]; 20 μM EF5, 2 h, aerobic", "result": "greatest retention"}, {"measurement": "retention of EF5, dose-response (in words)", "setting": "[3]; [6]", "result": "clearly superior"}, {"measurement": "cellular retention of EF5 (in words)", "setting": "[4]; 20 μM EF5, 2 h, aerobic, compared to parental cells", "result": "minor EF5 retention"}, {"measurement": "activity towards EF5, dose-response (in words)", "setting": "[4]; [6]", "result": "minimal activity"}, {"measurement": "EF5 retention versus hypoxic activation in HCT-116 parental cells (in words)", "setting": "[5]", "result": "clearly superior"}]}
